In PMC11729640, “Synthesis and evaluation of 6-arylaminobenzamides as positron emission tomography imaging ligands for the sphingosine-1-phosphate-5 receptor” (RSC Medicinal Chemistry, 2025):

Experiments:
rat brain = assay: Pilot PET in vivo imaging in naïve rats; set-up: species or system Sprague–Dawley rats; conditions: intravenous bolus, n = 3
Method: Following successful preparation of [^18F]TEFM78, PET imaging with rodents was next conducted. On intravenous bolus administration of [^18F]TEFM78, there was rapid uptake of the radiotracer into the rat brain (Fig. 3a), followed by clearance within 20 minutes of the scan starting (Fig. 3b). […] The biodistribution and kinetics of the spinal cord were different from the brain with a lower peak radiotracer uptake but slower clearance (Fig. 3b). […] Typically, low free fraction of compounds can limit brain penetration. However, as shown in the PET images presented in Fig. 3, despite low free fraction, brain penetration of [^18F]TEFM78 is successfully achieved. […]
Fig. 3 Brain and spinal cord kinetics of [^18F]TEFM78 in naïve rats. […] Data expressed as SUV and presented as mean ± SEM, n = 3.
All animal procedures were performed in accordance with the guidelines for care and use of laboratory animals of Edinburgh University and experiments were approved by the Home Office under the Animals (Scientific Procedures) Act 1986, UK. […] Once the PET scans were reconstructed, data was analysed using PMOD image analysis software (PMOD Technologies LLC, Zürich, Switzerland). […] Time activity curves (TACs) were created for each region and PET data expressed as standard uptake value (SUV), calculated as radioactive concentration in the VOI divided by the injected dose and animal's weight.

[1] = Stability of radiotracer by radio-HPLC and radio-TLC; format: physicochemical
Description: On identification of TEFM78 as the lead compound, a synthetic route to access a suitable precursor for late stage radiofluorination was developed (Scheme 3). Our approach focused on the synthesis of a 6-arylaminobenzamide that could undergo late-stage functionalisation at the 4′-position for subsequent radiofluorination. Nucleophilic aromatic substitution of 9b with 2,6-dimethylaniline (18), followed by Ullmann coupling and amidation gave benzamide 21 in 81% yield over the three steps. Activation of the electron-rich aniline ring was achieved using silver(I) triflimide-catalysed iodination.[17] Following optimisation (solvent and reaction time), this gave 22 in 54% yield. Subsequent Pd(0)-catalysed stannylation gave trimethyltin precursor 23 in 84% yield. The radiosynthesis of [^18F]TEFM78 was then performed using a TRACERlab FXFN automated synthesiser. No-carrier-added [^18F]fluoride from the cyclotron was trapped on a carbonate-pre-conditioned quaternary methyl ammonium (QMA) cartridge, eluted into the reaction vessel and then azeotropically dried. […]
Analytical HPLC was carried out on a Thermo Dionex Ulimate system 3000 equipped with a Berthold FlowStar LB 513 radio flow detector and a DAD-3000 UV detector. […] The nonradioactive standards were detected using a UV wavelength of 254 nm.

COc1c(C)ccc(Nc2c(C)cc([18F])cc2C)c1C(N)=O [[^18F]TEFM78]
peak standard uptake value (SUV) in the brain (rat brain): 3 g/mL
radiochemical purity (RCP) ten hours after production (stability) [1]: > 99%
